Data as given in EP4050002A1, “ANTI-PROLIFERATIVE AGENTS” (First Health Pharmaceuticals B.V., priority 2021, dated 2022).

Legend:
[1] = Systemic and organ toxicity; type: in vivo, mice
Method: […] For blood withdrawal, mice were anesthetized using gaseous anesthesia and 0.2 to 0.3 ml of blood samples were collected in Li-Heparin containing tubes at the time points above indicated, stored on ice, centrifuged within 15 minutes to separate plasma at 1540 ref (5000 rpm) at 4°C for 10 minutes; plasma was separated and transferred to new tubes.
At study closure, animals were sacrificed and tumor and tissues removed for further studies of distribution and morphology. Mice from the efficacy study were anesthetized using gaseous anesthesia and blood samples collected in Li-Heparin containing tubes by intracardiac puncture, stored on ice, centrifuged within 15 minutes to separate plasma at 1540 ref (5000 rpm), at 4°C for 10 minutes; plasma was separated and transferred to new tubes. After blood collection, tissues for bio-analyses were separated, washed in PBS, dried and frozen at -80±10°C until homogenization.
Tissues for histological analyses were washed in PBS and paraffin embedded soon after separation. Dehydration and Haematoxylin and Eosin (H&E) staining was performed on 5 µm thick sections followed by microscopic examination with Nikon Ni-e microscope (Nikon Instruments, Calenzano, Italy).

PBMC = experiment: Cytotoxicity in primary cells, ATP-based method; type: cell-based, human
Method: (§1) The non-specific toxicity of the compounds is evaluated in non-tumor immortalized cells with cell count and / or MTS methods, and in primary Peripheral Blood Mononuclear Cells (PBMC) with the ATP-based method.
Primary human Peripheral Blood Mononuclear Cells (PBMC) are incubated at 37°C and 5% CO2 for the viability assay with CellTiter Glo 2.0 kit, an ATP-based method (Promega, Catalog number: G9241). 48 h prior to the assay, 2 µg/ml of phytohemagglutinin-A (PHA) are added to PBMC culture and cells are incubated for 48 h at 37°C and 5% CO2. PBMC are centrifuged at 300 G for 10 minutes, then re-suspended in growth medium and plated at density of 6 x 10^4 cells/well. […]
PBMC incubated with the same amount of DMSO present in the compound dilutions are used as control. After the incubation, 50 µl of cell cultures from each well are transferred in a luminescence plate after vigorous pipetting and 50 µl of CellTiter Glo 2.0 are added in each well, then the plate is incubated in the Glomax Discovery Reader (Promega, Catalog number: GM3000) following the instructions. Relative luminescence units (RLU) calculated in each well is elaborated with GraphPad software: 100% viability is determined as the mean RLU value measured in the wells containing untreated PBMCs. IC50 was calculated by GraphPad Prism 8.0 software.

MCF10a = experiment: Cytotoxicity in non-tumor cells, cell count method; type: cell-based, human
Method: as §1
Cells were seeded at 3 to 5 x 10^4 cells/well density depending on cell lines and maintained at 37°C in 5% CO2. After 24 hours cells were treated with ascending concentrations of the investigational compounds and the reference (5-fluoro-Uracyl) in a range from 0 to 100 µM. Compounds were dissolved in DMSO which final concentration in each well was 0.5% v:v. After 72 h of incubation with compounds, the cells were detached with trypsin and re-suspended in 1 ml of complete medium; the cell number was evaluated using a Z2 Coulter Counter ("cell count method") (Attallah and Johnson, A simple highly sensitive methods for the determination of cell viability using an electronic particle analyzer, Coulter counter J. Immunol. Methods. 1981, 41, 155; Leonardi et al., Activated kinase screening identifies the IKBKE oncogene as a positive regulator of autophagy. Autophagy, 2019, 15, 312). Alternatively, after the 72 hours of incubation with compounds, the MTS solution (CellTiter 96® AQueous One Solution Cell Proliferation Assay) is added to each well and absorbance at 490 nm wavelength is read after 2 hours of incubation ("MTS method"). […]

**Q.** For CCCCc1cn(-c2ccc(-c3nnc(-c4ccccc4C(F)(F)F)o3)cc2)nn1 [Compound 5], which “treatment related morphological changes in brain, liver, lung, spleen and kidney” value ([1]; 6 weeks of repeated treatment, I.P. 45mg/Kg every 48 hours) is on record?
**A.** Its value is “No treatment related morphological changes”.

**Q.** What about the “systemic toxicities or altered behavior” value ([1]; I.P. 10 mg/kg single administration, mice observed for 24 hours) of the same compound?
**A.** Its value is “no toxicities”.

**Q.** And the “systemic toxicities or altered behavior” value ([1]; I.P. 45 mg/kg double administration, mice observed for 48 hours)?
**A.** The value was “no toxicities”.

**Q.** And the “systemic toxicities or altered behavior” value ([1]; I.P. 45 mg/kg every 48 hours, 6 weeks, including 1 week follow up)?
**A.** The value was “no toxicities”.

**Q.** What about the “systemic toxicities or altered behavior” value ([1]; I.P. 45 mg/kg single administration, mice observed for 24 hours) of the same compound?
**A.** Its value is “no toxicities”.

**Q.** And the “systemic toxicities or altered behavior” value ([1]; I.T. 0.08 mg/kg single administration, mice observed for 24 hours)?
**A.** The value was “no toxicities”.

**Q.** And the “systemic toxicities or altered behavior” value ([1]; I.V. 1 mg/kg single administration, mice observed for 24 hours)?
**A.** Its value is “no toxicities”.

**Q.** And the “systemic toxicities or altered behavior” value ([1]; P.O. 45 mg/kg single administration, mice observed for 24 hours)?
**A.** The value was “no toxicities”.

**Q.** And the IC50 (PBMC; Homo sapiens, PBMC, 72 hours of incubation, ATP-based method)?
**A.** Its IC50 is 200 µM.

**Q.** And the toxicity (PBMC; primary human cells (Table 16))?
**A.** The toxicity was “above 100 µM”.

**Q.** And the IC50 (MCF10a; Homo sapiens, MCF-10A, MCF10a, 72 hours of incubation, cell count method)?
**A.** Its IC50 is 440 µM.

**Q.** And the toxicity (MCF10a; non tumor cell lines (Table 17))?
**A.** The toxicity was “above 100 µM”.
